Assay results: patent publication US20030186891A1, “Compositions and methods for treatment of vitamin D deficiency” (priority 2002, published 2003)

What was measured:
[1] = system: 24-hydroxylase mRNA; test: 24-hydroxylase mRNA expression in CL-8 cells; format: cell-based; conditions: 1α,25-dihydroxyvitamin D3 10^−9 M, 5 hours (FIG. 4)
Procedure: CL-8 cells were grown as above and the peptide of SEQ ID NO.1 was either not added to the cells, or added to the cells at a concentration of either 100 or 500 ng/ml. Cells were grown for a further 5 hours, and RNA was harvested using methods described above and expression levels of 24-hydroxylase were determined in each sample using methods described above. […]

[2] = system: 1α-hydroxylase mRNA; test: 1α-hydroxylase mRNA expression in CL-8 cells (real-time quantitative PCR); format: cell-based, human
Procedure: Cell culture, RNA preparation and cDNA synthesis: CL-8 cells (1.6×10^6 cells) were placed in 60 mm culture dish, and cultured for 48 hours in 5% FCS D-MEM/HamF-12(1:1) medium. This medium was exchanged to FCS free, 0.5 mM Ca defined medium [D-MEM/HamF-12 (13:87), Insulin 5 μg/ml, Transferrin 5 μg/ml, Na2SeO3 5 ng/ml, T3 0.37 nM, EGF 2.5 ng/ml, Hydrocortisone 1 nM]. After 24 hours, the peptide of SEQ ID NO.1 (100 ng/ml or 500 ng/ml) or PTH 100 nM were added and cultured for 5 hours. After treatment, the total cellular contents of each well were used for RNA extraction and reverse transcription (RT). RNA was isolated using ISOGEN (Nippon Gene, Japan) according to the manufacturer's protocol. The purified RNA was redissolved in 10 μl RNase-free water and used for cDNA synthesis by RT. The RT was performed in a 20 μl reaction mixture containing 10 mM Tris buffer, pH8.3, 50 mM KCl, 5 mM MgCl2, 1 mM each of dATP, dGTP, dCTP and dTTP, 20 U of RNase inhibitor, 1 μM Reverse primer and 5 U of AMV reverse transcriptase. The reaction mixture was incubated at 30° C. for 10 min, 55° C. for 15 min, 95° C. for 5 min followed by 5° C. for 5 min.
Real-time quantitative PCR: mRNA was quantitated for human 1α-OHase gene and β-actin. Theses gene were amplified using primers of oligo synthesis DNA (Takara, Japan). […] Quantitation of mRNA was performed using Applied Biosystems GeneAmp 5700 sequence detection system with SYBR Green methods.
In order to study the effect of the peptide of SEQ ID No. 1 on the regulation of 1α-hydoxylase mRNA expression, CL-8 cells were grown with and without the peptide of SEQ ID No. 1 and the effects of the peptide on 1α-hydroxylase were quantified. […]
PTH and the peptide of SEQ ID NO.1 induce the expression of 1α-hydroxylase mRNA. […] Cells were grown for a further 5 hours, and RNA was harvested and expression levels of 1α-hydroxylase were determined in each sample using standard Northern blotting or RT-PCR procedures.

## C=C1/C(=C\C=C2/CCC[C@]3(C)[C@@H]([C@H](C)CCCC(C)(C)O)CC[C@@H]23)C[C@@H](O)C[C@@H]1O [1α,25-dihydroxyvitamin D3]
[1]
  levels of 24-hydroxylase mRNA: significant increase

## O=S(=O)(NCCNC/C=C/c1ccc(Br)cc1)c1cccc2cnccc12 [H-89]
[2]; H-89 10 uM with PTH 100 nmol, 5 hours (FIG. 2)
  effect of H-89 on the inducing effects of PTH on 1α-hydroxylase mRNA expression: inhibited
[2]; H-89 10 uM with peptide 100 or 500 ng/ml, 5 hours
  effect of H-89 on the stimulatory effects of the peptide of SEQ ID NO.1 on 1α-hydroxylase mRNA expression: did not inhibit

B1: parathyroid hormone (peptide, UniProt P01270 32-115, looked up)
Parathyroid hormone: SVSEIQLMHNLGKHLNSMERVEWLRKKLQDVHNFVALGAPLAPRDAGSQRPRKKEDNVLVESHEKSLGEADKADVNVLTKAKSQ
modifications: Parathyroid hormone
notes: parathyroid hormone, comparator inducer of 1α-hydroxylase mRNA acting via a PKA-dependent pathway
[2]
  induction of the expression of 1α-hydroxylase mRNA: induce
